Reference: patent US8324250B2 (Hoffmann-La Roche Inc., priority 2009, dated 2012)

molecular target: T1, recombinant human NK3 receptor (Homo sapiens, UniProt P29371); assay: [3H]SR142801 competition binding assay; details: membranes from HEK293 cells transiently expressing recombinant human NK3 receptor; [3H]SR142801 radioligand; 75 min at RT; Ki by Cheng-Prussoff; read-out: Data Ki (hNK-3 receptor affinity)
T1 construct: expressed in transfected cells; host or cells: HEK293 cells (transient expression), membranes
T1 sequence (P29371 1-465): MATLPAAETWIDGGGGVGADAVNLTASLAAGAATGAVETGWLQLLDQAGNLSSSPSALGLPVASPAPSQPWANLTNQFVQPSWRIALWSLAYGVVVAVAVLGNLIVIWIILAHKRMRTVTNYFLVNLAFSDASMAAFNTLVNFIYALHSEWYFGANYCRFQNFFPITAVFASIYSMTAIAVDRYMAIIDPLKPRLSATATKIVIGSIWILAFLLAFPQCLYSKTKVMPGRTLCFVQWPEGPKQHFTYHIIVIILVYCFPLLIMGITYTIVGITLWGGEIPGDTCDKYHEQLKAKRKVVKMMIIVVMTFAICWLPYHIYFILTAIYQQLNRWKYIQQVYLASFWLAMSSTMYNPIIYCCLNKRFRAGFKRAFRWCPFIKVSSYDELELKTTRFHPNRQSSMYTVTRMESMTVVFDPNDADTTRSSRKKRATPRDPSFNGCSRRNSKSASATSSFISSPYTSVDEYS
In short: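 Membranes from HEK293 cells transiently expressing the receptor, 5 μg protein/well, in 50 mM Tris-HCl pH 7.4 with 4 mM MnCl2, 1 μM phosphoramidon, 0.1% BSA; nonspecific binding defined with 10 μM SB222200. Filtration and scintillation counting; IC50 from Hill fit, Ki by Cheng-Prussoff using saturation-derived KD, duplicates.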

SMILES | Ki [nM]
O=C(c1ccc(-c2ccc(F)cc2)cc1)N1CCC(C(=O)NCc2ccc(F)cc2)(c2ccc(F)cc2)CC1 [Example 136, 1-(4′-Fluoro-biphenyl-4-carbonyl)-4-(4-fluoro-phenyl)-piperidine-4-carboxylic acid 4-fluoro-benzylamide] | 54.9
O=C(c1ccc(-c2ccc(F)cc2)cc1)N1CCC(C(=O)NCC2CCCCC2)(c2ccc(F)cc2)CC1 [Example 142, 1-(4′-Fluoro-biphenyl-4-carbonyl)-4-(4-fluoro-phenyl)-piperidine-4-carboxylic acid cyclohexylmethyl-amide] | 38.2
O=C(c1ccc(-c2ccc(F)cc2)cc1)N1CCC(C(=O)NC(c2ccccc2)C(F)(F)F)(c2ccc(F)cc2)CC1 (stereo not shown) [Example 145, 1-(4′-Fluoro-biphenyl-4-carbonyl)-4-(4-fluoro-phenyl)-piperidine-4-carboxylic acid (2,2,2-trifluoro-1-phenyl-ethyl)-amide] | 36.4
CC(C)C(NC(=O)C1(c2ccc(F)cc2)CCN(C(=O)C2CCN(c3ccc(C#N)cn3)CC2)CC1)c1ccc(F)cc1 (stereo not shown) [Example 153, 1-(5′-Cyano-3,4,5,6-tetrahydro-2H-[1,2′]bipyridinyl-4-carbonyl)-4-(4-fluoro-phenyl)-piperidine-4-carboxylic acid [1-(4-fluoro-phenyl)-2-methyl-propyl]-amide] | 38
N#Cc1ccc(N2CCC(C(=O)N3CCC(C(=O)NC(c4ccc(F)cc4)C(F)(F)F)(c4ccc(F)cc4)CC3)CC2)nc1 (stereo not shown) [Example 154, 1-(5′-Cyano-3,4,5,6-tetrahydro-2H-[1,2′]bipyridinyl-4-carbonyl)-4-(4-fluoro-phenyl)-piperidine-4-carboxylic acid [2,2,2-trifluoro-1-(4-fluoro-phenyl)-ethyl]-amide] | 75
C[C@H](NC(=O)C1(c2ccc(F)cc2)CCN(C(=O)C2CCN(c3ccc(C#N)cn3)CC2)CC1)c1cccc(F)c1 [Example 155, 1-(5′-Cyano-3,4,5,6-tetrahydro-2H-[1,2′]bipyridinyl-4-carbonyl)-4-(4-fluoro-phenyl)-piperidine-4-carboxylic acid [(S)-1-(3-fluoro-phenyl)-ethyl]-amide] | 75
C[C@H](NC(=O)C1(c2ccc(F)cc2)CCN(C(=O)C2CCN(c3ccc(C#N)cn3)CC2)CC1)c1ccc(F)cc1 [Example 156, 1-(5′-Cyano-3,4,5,6-tetrahydro-2H-[1,2′]bipyridinyl-4-carbonyl)-4-(4-fluoro-phenyl)-piperidine-4-carboxylic acid [(S)-1-(4-fluoro-phenyl)-ethyl]-amide] | 87
CCN(NC(=O)C1(c2ccc(F)cc2)CCN(C(=O)c2ccc(-c3nc(C)no3)cc2)CC1)c1ccc(F)cc1 [Example 160, 4-(4-Fluoro-phenyl)-1-[4-(3-methyl-[1,2,4]oxodiazol-5-yl)-benzoyl]-piperidine-4-carboxylic acid N′-ethyl-#N!′-(4-fluoro-phenyl)-hydrazide] | 92
Cc1noc(-c2ccc(C(=O)N3CCC(C(=O)NC(C)c4ccc(F)c(C(F)(F)F)c4)(c4ccc(F)cc4)CC3)cc2)n1 (stereo not shown) [Example 162, 4-(4-Fluoro-phenyl)-1-[4-(3-methyl-[1,2,4]oxadiazol-5-yl)-benzoyl]-piperidine-4-carboxylic acid [1-(4-fluoro-3-trifluoromethyl-phenyl)-ethyl]-amide] | 75
Cc1nc(-c2ccc(C(=O)N3CCC(C(=O)NC4(c5ccc(F)cc5)CC4)(c4ccc(F)cc4)CC3)cc2)no1 [Example 163, 4-(4-Fluoro-phenyl)-1-[4-(5-methyl-[1,2,4]oxadiazol-3-yl)-benzoyl]-piperidine-4-carboxylic acid [1-(4-fluoro-phenyl)-cyclopropyl]-amide] | 41
Cc1nc(-c2ccc(C(=O)N3CCC(C(=O)NC(c4ccc(F)cc4)C(F)(F)F)(c4ccc(F)cc4)CC3)cc2)no1 (stereo not shown) [Example 165, 4-(4-Fluoro-phenyl)-1-[4-(5-methyl-[1,2,4]oxadiazol-3-yl)-benzoyl]-piperidne-4-carboxylic acid [2,2,2-trifluoro-1-(4-fluoro-phenyl)-ethyl]-amide] | 66
Cc1nc(-c2ccc(C(=O)N3CCC(C(=O)N[C@@H](C)c4ccc(F)cc4)(c4ccc(F)cc4)CC3)cc2)no1 [Example 168, 4-(4-Fluoro-phenyl)-1-[4-(5-methyl-[1,2,4]oxadiazol-3-yl)-benzoyl]-piperidine-4-carboxylic acid [(S)-1-(4-fluoro-phenyl)-ethyl]-amide] | 36

Results, then the compound that gave them:

Ki [nM] | SMILES
26.7 | O=C(c1ccc(-c2ccc(F)cc2)cc1)N1CCC(C(=O)NC2(c3ccc(F)cc3)CC2)(c2ccc(F)cc2)CC1 [Example 135, 1-(4′-Fluoro-biphenyl-4-carbonyl)-4-(4-fluoro-phenyl)-piperidine-4-carboxylic acid [1-(4-fluoro-phenyl)-cyclopropyl]-amide]
7.8 | O=C(c1ccc(-c2ccc(F)cc2)cc1)N1CCC(C(=O)N[C@@H](CO)c2ccccc2)(c2ccc(F)cc2)CC1 [Example 140, 1-(4′-Fluoro-biphenyl-4-carbonyl)-4-(4-fluoro-phenyl)-piperidine-4-carboxylic acid ((R)-2-hydroxy-1-phenyl-ethyl)-amide]
6.9 | CC(C)C(NC(=O)C1(c2ccc(F)cc2)CCN(C(=O)c2ccc(-c3ccc(F)cc3)cc2)CC1)c1ccccc1 (stereo not shown) [Example 143, 1-(4′-Fluoro-biphenyl-4-carbonyl)-4-(4-fluoro-phenyl)-piperidine-4-carboxylic acid (2-methyl-1-phenyl-propyl)-amide]
10.9 | CC(C)C(NC(=O)C1(c2ccc(F)cc2)CCN(C(=O)c2ccc(-c3ccc(F)cc3)cc2)CC1)c1ccc(F)cc1 (stereo not shown) [Example 144, 1-(4′-Fluoro-biphenyl-carbonyl)-4-(4-fluoro-phenyl)-piperidne-4-carboxylic acid [1-(4-fluoro-phenyl)-2-methyl-propyl]-amide]
36 | O=C(c1ccc(-c2ccc(F)cc2)cc1)N1CCC(C(=O)NC(c2ccc(F)cc2)C(F)(F)F)(c2ccc(F)cc2)CC1 (stereo not shown) [Example 146, 1-(4′-Fluoro-biphenyl-4-carbonyl)-4-(4-fluoro-phenyl)-piperidine-4-carboxylic acid [2,2,2-trifluoro-1-(4-fluoro-phenyl)-ethyl]-amide]
17.6 | O=C(c1ccc(-c2ccc(F)cc2)cc1)N1CCC(C(=O)NC(c2ccccc2)C2CC2)(c2ccc(F)cc2)CC1 (stereo not shown) [Example 147, 1-(4′-Fluoro-biphenyl-4-carbonyl)-4-(4-fluoro-phenyl)-piperidine-4-carboxylic acid (cyclopropyl-phenyl-methyl)-amide]
5.8 | O=C(c1ccc(-c2ccc(F)cc2)cc1)N1CCC(C(=O)NC(CC2CC2)c2ccccc2)(c2ccc(F)cc2)CC1 (stereo not shown) [Example 148, 1-(4′-Fluoro-biphenyl-4-carbonyl)-4-(4-fluoro-phenyl)-piperidine-4-carboxylic acid (2-cyclopropyl-1-phenyl-ethyl)-amide]
11.5 | O=C(c1ccc(-c2ccc(F)cc2)cc1)N1CCC(C(=O)N[C@@H](CO)c2ccc(F)cc2)(c2ccc(F)cc2)CC1 [Example 151, 1-(4′-Fluoro-biphenyl-4-carbonyl)-4-(4-fluoro-phenyl)-piperidine-4-carboxylic acid [(R)-1-(4-fluoro-phenyl)-2-hydroxy-ethyl]-amide]
9.4 | Cc1noc(-c2ccc(C(=O)N3CCC(C(=O)NC4(c5ccc(F)cc5)CC4)(c4ccc(F)cc4)CC3)cc2)n1 [Example 157, 4-(4-Fluoro-phenyl)-1-[4-(3-methyl-[1,2,4]oxadiazol-5-yl)-benzoyl]-piperidine-4-carboxylic acid [1-(4-fluoro-phenyl)-cyclopropyl]-amide]
11 | Cc1noc(-c2ccc(C(=O)N3CCC(C(=O)NC(c4ccc(F)cc4)C(C)C)(c4ccc(F)cc4)CC3)cc2)n1 (stereo not shown) [Example 158, 4-(4-Fluoro-phenyl)-1-[4-(3-methyl-[1,2,4]oxadiazol-5-yl)-benzoyl]-piperidine-4-carboxylic acid [1-(4-fluoro-phenyl)-2-methyl-propyl]-amide]
4.6 | Cc1noc(-c2ccc(C(=O)N3CCC(C(=O)N[C@@H](C)c4cccc(F)c4)(c4ccc(F)cc4)CC3)cc2)n1 [Example 161, 4-(4-Fluoro-phenyl)-1-[4-(3-methyl-[1,2,4]oxadiazol-5-yl)-benzoyl]-piperidine-4-carboxylic acid [(S)-1-(3-fluoro-phenyl)-ethyl]-amide]
12 | Cc1nc(-c2ccc(C(=O)N3CCC(C(=O)NC(c4ccc(F)cc4)C(C)C)(c4ccc(F)cc4)CC3)cc2)no1 (stereo not shown) [Example 164, 4-(4-Fluoro-phenyl)-1-[4-(5-methyl-[1,2,4]oxadiazol-3-yl)-benzoyl]-piperidne-4-carboxylic acid [1-(4-fluoro-phenyl)-2-methyl-propyl]-amide]
17 | Cc1nc(-c2ccc(C(=O)N3CCC(C(=O)N[C@@H](C)c4cccc(F)c4)(c4ccc(F)cc4)CC3)cc2)no1 [Example 167, 4-(4-Fluoro-phenyl)-1-[4-(5-methyl-[1,2,4]oxadiazol-3-yl)-benzoyl]-piperidine-4-carboxylic acid [(S)-1-(3-fluoro-phenyl)-ethyl]-amide]
